One assay deals with T1, human GSK3α (Homo sapiens, UniProt P49840).
T1 construct: Full length human GSK3α or GSK3B expressed as N-terminal GST fusion proteins; GST (N); purchased Carna Biosciences (Japan); host or cells: baculovirus host
As to the kind of experiment: In vitro enzymatic activity assay, GSK3α. The assay is classed as biochemical. The conditions noted are these: 1.0 mM ATP, 1.0 μM peptide substrate, 120 min, 25° C, read-out: Enzyme GSK3α (IC50).

The target of a further assay is T2, GSK3A (Homo sapiens, UniProt P49840).
T2 construct: expressed in transfected cells
T2 sequence (P49840 whole entry): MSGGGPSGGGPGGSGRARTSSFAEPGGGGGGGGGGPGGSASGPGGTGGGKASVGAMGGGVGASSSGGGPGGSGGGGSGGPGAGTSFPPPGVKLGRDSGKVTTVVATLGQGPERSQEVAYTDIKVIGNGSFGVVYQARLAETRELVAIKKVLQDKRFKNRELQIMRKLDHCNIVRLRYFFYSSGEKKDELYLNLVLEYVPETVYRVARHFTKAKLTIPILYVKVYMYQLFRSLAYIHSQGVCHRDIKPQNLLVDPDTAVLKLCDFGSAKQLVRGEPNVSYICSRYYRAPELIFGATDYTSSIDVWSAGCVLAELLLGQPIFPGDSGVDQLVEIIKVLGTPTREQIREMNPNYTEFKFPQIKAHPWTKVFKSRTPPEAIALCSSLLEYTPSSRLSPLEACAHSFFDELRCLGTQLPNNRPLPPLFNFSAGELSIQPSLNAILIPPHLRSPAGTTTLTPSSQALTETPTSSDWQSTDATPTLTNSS
Briefly: NanoBRET cellular target engagement assay, Nanoluc-GSK3A in HEK293 cells. In kind it is cell-based. To be noted: NanoBRET GSK3α IC50, HEK293 cells, tracer K-8, 2 hours, 37° C.

In assay [1] the target is T3, GSK3B (Homo sapiens, UniProt P49841). Briefly: NanoBRET cellular target engagement assay, Nanoluc-GSK3B in HEK293 cells. The assay is classed as cell-based. Also on record: expressed in transfected cells. The conditions noted are these: NanoBRET GSK3β IC50, HEK293 cells, tracer K-8, 2 hours, 37° C.
T3 sequence (P49841 whole entry, the tested form may be a part): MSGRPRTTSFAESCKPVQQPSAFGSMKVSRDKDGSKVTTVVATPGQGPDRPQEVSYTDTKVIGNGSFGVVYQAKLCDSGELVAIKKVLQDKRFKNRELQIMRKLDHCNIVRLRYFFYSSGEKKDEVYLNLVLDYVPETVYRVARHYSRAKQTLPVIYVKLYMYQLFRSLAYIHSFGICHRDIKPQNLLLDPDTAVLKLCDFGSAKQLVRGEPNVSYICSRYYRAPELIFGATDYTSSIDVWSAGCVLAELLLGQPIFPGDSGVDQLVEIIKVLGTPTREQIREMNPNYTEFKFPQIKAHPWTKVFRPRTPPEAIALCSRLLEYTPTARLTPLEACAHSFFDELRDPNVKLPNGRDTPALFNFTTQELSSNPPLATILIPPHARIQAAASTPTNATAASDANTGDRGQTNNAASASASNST
The target of assay [2] is T3, GSK3B. Briefly: In vitro enzymatic activity assay, GSK3β. In kind it is biochemical. Also on record: Full length human GSK3α or GSK3B expressed as N-terminal GST fusion proteins; GST (N); purchased Carna Biosciences (Japan); host or cells: baculovirus host. To be noted: 1.0 mM ATP, 1.0 μM peptide substrate, 120 min, 25° C, read-out: Enzyme GSK3β (IC50).

These results are taken from US20260327191A1, “GSK3a INHIBITORS AND METHODS OF USE THEREOF” (Blueprint Medicines Corporation, priority 2023, published 2026).

SMILES strings stand for the structures.

T1 sequence (P49840 whole entry, the tested form may be a part): as the sequence (P49840 whole entry) above

In the case of `CNC(COC)c1cncc(NC(=O)c2c(N)ncn(-c3c(Cl)cc(C(F)(F)F)cc3Cl)c2=O)c1` (single isomer, unassigned) [Example 122, (R)-4-amino-1-(2,6-dichloro-4-(trifluoromethyl)phenyl)-N-(5-(2-methoxy-1-(methylamino)ethyl)pyridin-3-yl)-6-oxo-1,6-dihydropyrimidine-5-carboxamide or (S)-4-amino-1-(2,6-dichloro-4-(trifluoromethyl)phenyl)-N-(5-(2-methoxy-1-(methylamino)ethyl)pyridin-3-yl)-6-oxo-1,6-dihydropyrimidine-5-carboxamide], the IC50 on human GSK3α amounted to 5.3 nM; against GSK3A, 5 nM; at GSK3B [1], 314 nM; on GSK3B [2] it was 327 nM.
On the same counts, the results for `CCCOc1cc(C)c(-n2cnc(N)c(C(=O)Nc3cncc(C(C)N)c3)c2=O)c(C)c1` (single isomer, unassigned) [Example 126, (R)-4-amino-N-(5-(1-aminoethyl)pyridin-3-yl)-1-(2,6-dimethyl-4-propoxyphenyl)-6-oxo-1,6-dihydropyrimidine-5-carboxamide or (S)-4-amino-N-(5-(1-aminoethyl)pyridin-3-yl)-1-(2,6-dimethyl-4-propoxyphenyl)-6-oxo-1,6-dihydropyrimidine-5-carboxamide] are 14.7 nM, 7.9 nM, 506 nM and 702 nM.
Take `CCC(N)c1cncc(NC(=O)c2c(N)ncn(-c3c(C)cc(C(F)F)cc3C)c2=O)c1` (single isomer, unassigned) [Example 128, (R)-4-amino-N-(5-(1-aminopropyl)pyridin-3-yl)-1-(4-(difluoromethyl)-2,6-dimethylphenyl)-6-oxo-1,6-dihydropyrimidine-5-carboxamide or (S)-4-amino-N-(5-(1-aminopropyl)pyridin-3-yl)-1-(4-(difluoromethyl)-2,6-dimethylphenyl)-6-oxo-1,6-dihydropyrimidine-5-carboxamide]: the IC50 worked out at 19 nM on human GSK3α, 7.7 nM at GSK3A, 546 nM at GSK3B [1] and 1180 nM on GSK3B [2].
On the same counts, the results for `CCOCc1cc(Cl)c(-n2cnc(N)c(C(=O)Nc3cncc(C(N)CC)c3)c2=O)c(Cl)c1` (single isomer, unassigned) [Example 129, (R)-4-amino-N-(5-(1-aminopropyl)pyridin-3-yl)-1-(2,6-dichloro-4-(ethoxymethyl)phenyl)-6-oxo-1,6-dihydropyrimidine-5-carboxamide or (S)-4-amino-N-(5-(1-aminopropyl)pyridin-3-yl)-1-(2,6-dichloro-4-(ethoxymethyl)phenyl)-6-oxo-1,6-dihydropyrimidine-5-carboxamide] are 2.1 nM, 1.2 nM, 81.7 nM and 105 nM.
Turning to `CCOCc1cc(C)c(-n2cnc(N)c(C(=O)Nc3cncc(C(C)N)c3)c2=O)c(C)c1` (single isomer, unassigned) [Example 130, (R)-4-amino-N-(5-(1-aminoethyl)pyridin-3-yl)-1-(4-(ethoxymethyl)-2,6-dimethylphenyl)-6-oxo-1,6-dihydropyrimidine-5-carboxamide or (S)-4-amino-N-(5-(1-aminoethyl)pyridin-3-yl)-1-(4-(ethoxymethyl)-2,6-dimethylphenyl)-6-oxo-1,6-dihydropyrimidine-5-carboxamide], the 50% inhibitory concentration (IC50) at human GSK3α is 13.5 nM; on GSK3A, 5.3 nM; at GSK3B [1] it was 461 nM; on GSK3B [2], 591 nM.
As to `CCOCc1cc(C)c(-n2cnc(N)c(C(=O)Nc3cncc(C4CCCCCN4)c3)c2=O)c(C)c1` (single isomer, unassigned) [Example 132, (R)-4-amino-N-(5-(azepan-2-yl)pyridin-3-yl)-1-(4-(ethoxymethyl)-2,6-dimethylphenyl)-6-oxo-1,6-dihydropyrimidine-5-carboxamide or (S)-4-amino-N-(5-(azepan-2-yl)pyridin-3-yl)-1-(4-(ethoxymethyl)-2,6-dimethylphenyl)-6-oxo-1,6-dihydropyrimidine-5-carboxamide], the IC50 at human GSK3α turned out to be 5.5 nM; on GSK3A, 2 nM; against GSK3B [1], 181 nM; at GSK3B [2], 228 nM.
For the molecule `CCOc1cc(Cl)c(-n2cnc(N)c(C(=O)Nc3cncc(C(N)COC)c3)c2=O)c(Cl)c1` (single isomer, unassigned) [Example 134, (R)-4-amino-N-(5-(1-amino-2-methoxyethyl)pyridin-3-yl)-1-(2,6-dichloro-4-ethoxyphenyl)-6-oxo-1,6-dihydropyrimidine-5-carboxamide or (S)-4-amino-N-(5-(1-amino-2-methoxyethyl)pyridin-3-yl)-1-(2,6-dichloro-4-ethoxyphenyl)-6-oxo-1,6-dihydropyrimidine-5-carboxamide], the IC50 is 3.4 nM at human GSK3α, 3.2 nM against GSK3A, 204 nM at GSK3B [1] and 212 nM on GSK3B [2].
On to `CCOc1cc(Cl)c(-n2cnc(N)c(C(=O)Nc3cncc(C4COCCCN4)c3)c2=O)c(Cl)c1` (single isomer, unassigned) [Example 135, (R)-N-(5-(1,4-oxazepan-3-yl)pyridin-3-yl)-4-amino-1-(2,6-dichloro-4-ethoxyphenyl)-6-oxo-1,6-dihydropyrimidine-5-carboxamide or (S)-N-(5-(1,4-oxazepan-3-yl)pyridin-3-yl)-4-amino-1-(2,6-dichloro-4-ethoxyphenyl)-6-oxo-1,6-dihydropyrimidine-5-carboxamide], for which the concentration for half-maximal inhibition (IC50) came to 3.2 nM at human GSK3α, 4.5 nM against GSK3A, 264 nM at GSK3B [1] and 184 nM on GSK3B [2].
Turning to `CCOc1cc(Cl)c(-n2cnc(N)c(C(=O)Nc3cncc(C(N)CC)c3)c2=O)c(Cl)c1` (single isomer, unassigned) [Example 136, (R)-4-amino-N-(5-(1-aminopropyl)pyridin-3-yl)-1-(2,6-dichloro-4-ethoxyphenyl)-6-oxo-1,6-dihydropyrimidine-5-carboxamide or (S)-4-amino-N-(5-(1-aminopropyl)pyridin-3-yl)-1-(2,6-dichloro-4-ethoxyphenyl)-6-oxo-1,6-dihydropyrimidine-5-carboxamide], the IC50 at human GSK3α was 2.9 nM; against GSK3A it was 1.8 nM; on GSK3B [1], 118 nM; at GSK3B [2] it was 206 nM.
For the molecule `CCOc1cc(Cl)c(-n2cnc(N)c(C(=O)Nc3cncc(C(C)N)c3)c2=O)c(Cl)c1` (single isomer, unassigned) [Example 137, (R)-4-amino-N-(5-(1-aminoethyl)pyridin-3-yl)-1-(2,6-dichloro-4-ethoxyphenyl)-6-oxo-1,6-dihydropyrimidine-5-carboxamide or (S)-4-amino-N-(5-(1-aminoethyl)pyridin-3-yl)-1-(2,6-dichloro-4-ethoxyphenyl)-6-oxo-1,6-dihydropyrimidine-5-carboxamide], the concentration for half-maximal inhibition (IC50) on human GSK3α is 1.9 nM; against GSK3A it was 1.7 nM; at GSK3B [1], 87.1 nM; on GSK3B [2] it was 129 nM.
